Data taken from US11865098B1, “Methods and compositions for treating excessive sleepiness” (Axsome Malta Ltd., priority 2017, dated 2024).

Assays:
Assay type in all cases: in vivo, human
[1] = system: adult patients with OSA and ES; test: PGI-C, 12-week placebo-controlled parallel study in OSA; settings: 37.5, 75, 150, 300 mg; week 12; listed as APC
Description: The study was a 12-week, double-blind, placebo-controlled, parallel design study as described in greater detail in Example 1 (Schweitzer et al., Sleep 40(Abstract Supplement):A237. Abstract 0641 (2017)). Patients were randomized (1:1:2:2:2) to APC 37.5, 75, 150, 300 mg, or placebo for 12 weeks, and were stratified by adherence or non-adherence with primary OSA therapy (adherent definition was use for ≥4 hours per night on >70% of nights). Two patient-reported measures were included as secondary efficacy outcomes to evaluate the effects of APC on functional status and work productivity and activity impairment at baseline and weeks 1, 4, 8, and 12. The Functional Outcomes of Sleep questionnaire short version (FOSQ-10) (Chasens et al., Sleep 32(7):915 (2009)) evaluated the effects of ES on functioning. The Work Productivity and Activity Impairment questionnaire for Specific Health Problems (WPAI:SHP) (Reilly et al., Pharmacoeconomics 4(5):353 (1993); Reilly, Work Productivity and Activity Impairment Questionnaire: Specific Health Problem V2.0 (WPAI: SHP). www.reillyassociates.net/WPAI_SHP) evaluated work productivity impairment among employed patients and overall activity impairment outside of work among all patients for the past 7 days. […]

[2] = system: adults with OSA and excessive sleepiness; test: PGI-C and CGI-C, phase 3 randomized withdrawal study in OSA; settings: Double-Blind Withdrawal Phase, switched to placebo compared with stayed on APC
Description: The study was a double-blind, placebo-controlled, enriched, randomized withdrawal design (FIG. 1). In the Titration Phase (weeks 1-2), patients started on a once-daily dose of APC 75 mg and could be titrated up or down every 3 days to reach a maximum tolerated dose of APC 75, 150, or 300 mg. In the Stable-Dose Phase (weeks 3-4), patients continued to receive the dose that they were titrated to in the Titration Phase for 2 weeks. […]
Efficacy was based on change from week 4 to 6 on the co-primary endpoints of MWT and ESS and percentage of patients reported as improved on the PGI-C and Clinician Global Impression of Change (CGI-C); assessed on a 7-point scale from 1 (very much improved) to 7 (very much worse).
MWT and ESS data were analyzed using a mixed-effect model repeated measures (MMRM); PGI-C and CGI-C were evaluated using a chi-square test. […] Safety and tolerability were evaluated based on treatment-emergent adverse events (TEAEs), vital signs, and laboratory values.

[3] = system: patients with narcolepsy type 1 or type 2; test: ESS, 12-week phase 3 study in narcolepsy
Description: The ESS is a subjective sleepiness test that is well known in the art and routinely used to measure the sleepiness level of a subject. The scale is intended to measure daytime sleepiness through the use of a short questionnaire that asks the subject to rate his or her probability of falling asleep on a scale of increasing probability from 0 to 3 for eight different situations that most people engage in during their daily lives. The scores for the eight questions are added together to obtain a single number that estimates the subject's average sleep propensity (ASP). A number in the 0-10 range is considered to be normal while 11-12 indicates mild excessive sleepiness, 13-15 indicates moderate excessive sleepiness, and 16 or higher indicates severe excessive sleepiness. Narcolepsy patients have an average score of about 17. Obstructive sleep apnea (OSA) patients with excessive sleepiness have an average score of about 15.
The study was a 12-week, double-blind, randomized, placebo-controlled, parallel-group study. […]
Efficacy analyses were based on the modified intent-to-treat population (mITT), defined as all patients who were randomized, received at least 1 dose of study drug, and had baseline and at least 1 post-baseline evaluation of both MWT and ESS. MWT and ESS were analyzed using a mixed-effect repeated measures (MMRM) model. PGI-C was analyzed using a chi-square test. […]

NC(=O)OC[C@H](N)Cc1ccccc1 [JZP-110, (R)-2-amino-3-phenylpropyl carbamate]
Key secondary endpoint, PGI-C [1]: met at all doses except for APC 37.5 mg | Worsening of overall condition on the PGI-C and CGI-C [2]: Significantly higher percentages of patients who were switched to placebo experienced a worsening of their overall condition | ESS scores, effect at week 1 ([3]; 150 and 300 mg, as early as week 1): Statistically significant effects | ESS scores relative to placebo ([3]; all doses, week 12, mITT): significantly decreased ESS scores relative to placebo
